# Assay results taken from patent publication US11219221B2 (FarmHannong Co., Ltd., priority 2017, dated 2022).
# Experiments:
# Format in all cases: biochemical
# [1] = molecular target: Spirulina subsalsa PPO CyPPO16 (SEQ ID NO: 1) variant A162L (MBP fusion); assay: PPO enzyme inhibition (IC50), MBP-fused PPO; conditions: 50 μM protoporphyrinogen IX, pH 8.0, room temperature, 30 min
# Method: (§1) Thus, PPO proteins of wild type and variants were expressed as fused to MBP and were used for experiments.
# (§2) The following process for purification of PPO protein was performed in a 4° C. cold room. Amylose resin (NEB) was packed to 1.5×15 cm column (Bio-Rad, Econo Columns 1.5×15 cm, glass chromatography column, max. vol), and the obtained protein extracts were loaded to the column at a flow rate of 0.2 ml/min. The column was washed with 3 column volumes of buffer and the presence of protein in the washing solution was examined. When the protein was no longer detected, the washing procedure was terminated. Then, the MBP-PPO protein was eluted with approximately 2 column volumes of buffer containing 20 mM maltose. The protein concentration of each eluent was determined and the elution was stopped when the protein was no longer detected. Ten microliter of each fraction was investigated for protein quantification and SDS-PAGE analysis. The highly pure fractions of PPO protein variants were used for the enzyme assay.
# (§3) Since protoporphyrinogen IX, a substrate of PPO protein, was not commercially available, it was chemically synthesized in the laboratory. Overall process was performed in dark under nitrogen stream. […] of protoporphyrin IX was dissolved in 20 ml of 20% (v/v) EtOH, and stirred under dark condition for 30 minutes. The obtained protoporphyrin IX solution was put into a 15 ml screw tube in an amount of 800 μl, and flushed with nitrogen gas for 5 minutes. To this, 1.5 g of sodium amalgam was added and vigorously shaken for 2 minutes. The lid was opened to exhaust hydrogen gas in the tube. Thereafter, the lid was closed and incubated for 3 minutes. The protoporphyrinogen IX solution was filtered using syringe and cellulose membrane filter. […] To determine the enzyme activity of PPO protein, a reaction mixture was prepared with the following composition (based on 10 ml): 50 mM Tris-Cl (pH 8.0); 50 mM NaCl; 0.04% (v/v) Tween 20; 40 mM glucose (0.072 g); 5 units glucose oxidase (16.6 mg); and 10 units catalase (1 μl).
# (§4) Hundred and eighty microliters of a reaction mixture containing the purified PPO protein were placed in 96 well plates and 20 μl of […] were added. […] The reaction proceeded at room temperature for 30 min and the fluorescence of protoporphyrin IX was measured using Microplate reader (Sense, Hidex) (excitation: 405 nm; emission: 633 nm). […] To this, 2.7 N HCl was added, and the absorbance at 408 nm was measured. A standard curve was generated using standard protoporphyrin IX, and PPO activity was measured by calibration of protoporphyrin IX using the standard curve of protoporphyrin IX.
# [2] = molecular target: Spirulina subsalsa PPO CyPPO16 (SEQ ID NO: 1) variant L327T (MBP fusion); assay: PPO enzyme inhibition (IC50), MBP-fused PPO; conditions: 50 μM protoporphyrinogen IX, pH 8.0, room temperature, 30 min
# Method: as §1, §2, §3, §4
# [3] = molecular target: Spirulina subsalsa PPO CyPPO16 (SEQ ID NO: 1) variant R85A (MBP fusion); assay: PPO enzyme inhibition (IC50), MBP-fused PPO; conditions: 50 μM protoporphyrinogen IX, pH 8.0, room temperature, 30 min
# Method: as §1, §2, §3, §4
# [4] = molecular target: Spirulina subsalsa PPO CyPPO16 (SEQ ID NO: 1) variant V160C (MBP fusion); assay: PPO enzyme inhibition (IC50), MBP-fused PPO; conditions: 50 μM protoporphyrinogen IX, pH 8.0, room temperature, 30 min
# Method: as §1, §2, §3, §4
# [5] = molecular target: Spirulina subsalsa PPO CyPPO16 (SEQ ID NO: 1) variant V305M (MBP fusion); assay: PPO enzyme inhibition (IC50), MBP-fused PPO; conditions: 50 μM protoporphyrinogen IX, pH 8.0, room temperature, 30 min
# Method: as §1, §2, §3, §4
# [6] = molecular target: Spirulina subsalsa PPO CyPPO16, wild type, SEQ ID NO: 1 (MBP fusion); assay: PPO enzyme inhibition (IC50), MBP-fused PPO; conditions: 50 μM protoporphyrinogen IX, pH 8.0, room temperature, 30 min
# Method: as §1, §2, §3, §4
# [7] = system: Spirulina subsalsa PPO CyPPO16, wild type, SEQ ID NO: 1; assay: PPO enzyme kinetics (Vmax); conditions: substrate protoporphyrinogen IX
# Method: as §1
# as §3, with “Overall” for “Since protoporphyrinogen IX, a substrate of PPO protein, was not commercially available, it was chemically synthesized in the laboratory. Overall”, “minutes.” for “minutes. The protoporphyrinogen IX solution was filtered using syringe and cellulose membrane filter.”
# as §4
# (§5) Meanwhile, the maximal velocity (Vmax) values of each enzyme were determined in order to evaluate the kinetic characteristics of CyPPO16 and CyPPO17. The initial reaction velocity was measured where the reaction velocity was proportional to concentration by varying the substrate concentration. The amount of produced protoporphyrin IX, the enzyme reaction product, was measured by time course at room temperature for 20 minutes. Vmax values were calculated with the enzyme kinetics analysis program by Michaelis-Menten equation.
# [8] = system: Thermosynechococcus sp. NK55a PPO CyPPO17, wild type, SEQ ID NO: 3; assay: PPO enzyme kinetics (Vmax); conditions: substrate protoporphyrinogen IX
# Method: as §1
# as §3, with “Overall” for “Since protoporphyrinogen IX, a substrate of PPO protein, was not commercially available, it was chemically synthesized in the laboratory. Overall”, “minutes.” for “minutes. The protoporphyrinogen IX solution was filtered using syringe and cellulose membrane filter.”
# as §4, §5
# [9] = room temperature, 20 min time course, Michaelis-Menten
Vmax compared with AtPPO1 [7],"Vmax [7, 9]",Vmax compared with AtPPO1 [8],"Vmax [8, 9]",Structure (SMILES),IC50 [1],IC50 [2],IC50 [3],IC50 [4],IC50 [5],IC50 [6]
,,,,C#CCN1C(=O)COc2cc(F)c(N3C(=O)C4=C(CCCC4)C3=O)cc21 [flumioxazin],578 nM,780 nM,59 nM,57 nM,38 nM,14 nM
more than two times higher,336 nmole mg protein^−1 min^−1,more than two times higher,378 nmole mg protein^−1 min^−1,C=Cc1c2[nH]c(c1C)Cc1[nH]c(c(CCC(=O)O)c1C)Cc1[nH]c(c(C)c1CCC(=O)O)Cc1[nH]c(c(C)c1C=C)C2 [protoporphyrinogen IX],,,,,,
